Assay results: patent publication US10111875B2, “Pyrrolopyrimidine compounds and uses thereof” (HUTCHISON MEDIPHARMA LIMITED, priority 2010, dated 2018)
pIC50: −log10 of the molar value. Where two headings read alike, the source gives them in different places.

Key:
[1] = target: Recombinant human JAK1 catalytic domain (Homo sapiens (Human), UniProt P23458); test: JAK1 kinase assay (Z'-LYTE Tyr 6 Peptide); type: biochemical; settings: read-out: inhibition percentage (IR %)
Experimental: JAK1/2/3 kinase assay are performed in vitro using Kit-Tyr 6 Peptide (Invitrogen, Cat. No. PV4122). TYK2 kinase assay are performed in vitro using Z′-LYTE™ Kinase Assay Kit-Tyr 3 Peptide (Invitrogen, Cat. No. PV3192). […] All compounds are initially tested at 8 different concentrations (1 μM down to 0.0003 μM) using a 1:3 serial dilution scheme.

[2] = test system: IL-6-induced STAT3 phosphorylation, HepG2 cells; test: IL-6-induced STAT3 phosphorylation in HepG2 cells; type: cell-based, human; settings: IL-6 stimulation, read-out: pSTAT3 (IC50)
Experimental: For the determination of IL-6-induced STAT3 phosphorylation, HepG2 cells (SIBS) are seeded in 96 well plates at […] cells per well in Serum Free DMEM media overnight and incubated in the presence or absence of various concentrations of diluted compound for 30 min at 37° C., 5% CO2. Cells were stimulated by adding 10 ng/ml human recombinant IL-6 to each well for 15 minutes at 37° C., 5% CO2. Cells are then fixed in 2% paraformaldehyde for 45 minutes at room temperature and incubated in ice-cold methanol for 30 minutes. After washing in PBS, cells are incubated with rabbit anti-phospho-STAT3 (Y705) (Cell Signaling Technologies, 1:1000 in antibody dilution solution) primary antibody overnight at 4° C. Goat anti-rabbit IgG Alexa 488 (Invitrogen, 1:1,000 dilution in PBS) secondary antibody is added for 90 minutes prior to PBS washes. Cells are counted following incubation in a 7.5 uM propidium iodide, 100 μg/ml RNaseA, PBS solution for 60 minutes in the dark. Plates are read on an Acumen X3 instrument (TPP Labtech).
(§1) Percent inhibition is calculated using the following formula: Inhibition (%)=100−((inhibitor treatment−cell)/(stimulator−cell))×100
(§2) where: Inhibitor treatment represents cell activation percentage of wells treated by both compound and stimulator (IL-6, IL-3 or IL-4); Cell represents the cell activation percentage of wells treated by neither compound nor stimulator (IL-6, IL-3 or IL-4). Stimulator represents the cell activation percentage of wells treated by stimulator (IL-6, IL-3 or IL-4) only.

[3] = test system: IL-3-induced STAT5 phosphorylation, TF-1 cells; test: IL-3-induced STAT5 phosphorylation in TF-1 cells; type: cell-based, human; settings: IL-3 stimulation, read-out: pSTAT5 (IC50)
Experimental: For the determination of IL-3-induced STAT5 phosphorylation, TF-1 cells (ATCC) are plated in 96 well plates at 1×10^4 cells per well in 10% FBS RPMI-1640 media at 37° C., 5% CO2 for 3 hours. Cells were incubated in the presence or absence of various concentrations of diluted compound for 30 min at 37° C., 5% CO2. Cells were stimulated by adding 10 ng/ml human recombinant IL-3 to each well for 30 minutes at 37° C., 5% CO2. Cells are then fixed in 2% paraformaldehyde for 45 minutes at room temperature and incubated in ice-cold methanol for 30 minutes. After washing in PBS, cells are incubated with rabbit anti-phospho-STAT5 (Y694) (Cell Signaling Technologies, 1:1000 in antibody dilution solution) primary antibody overnight at 4° C. Goat anti-rabbit IgG Alexa 488 (Invitrogen, 1:1,000 dilution in PBS) secondary antibody is added for 90 minutes prior to PBS washes. Cells are counted following incubation in a 7.5 uM propidium iodide, 100 µg/ml RNaseA, PBS solution for 60 minutes in the dark. Plates are read on an Acumen X3 instrument (TPP Labtech).
as §1, §2

[4] = test system: IL-4-induced STAT6 phosphorylation, Ramos cells; test: IL-4-induced STAT6 phosphorylation in Ramos cells; type: cell-based; settings: Homo sapiens, IL-4 stimulation, read-out: pSTAT6 (IC50)
Experimental: For the determination of IL-4-induced STAT6 phosphorylation, Ramos cells (ATCC) are plated in 96 well plates at 1.0×10^4 cells per well 10% FBS RPMI-1640 and incubated at 37° C., 5% CO2 for 3 hours. Cells were incubated with compounds for 30 minutes prior to stimulation with interleukin-4 (10 ng/ml final) for an additional 30 minutes. Cells are then fixed in 2% paraformaldehyde for 45 minutes and incubated in ice-cold methanol for 30 minutes. After washing in PBS, cells are incubated with rabbit anti-phospho-STAT6 (Y641) (Cell Signaling Technologies, 1:1000 in antibody dilution solution) primary antibody overnight at 4° C. Goat anti-rabbit IgG Alexa 488 (Invitrogen, 1:1,000 dilution in PBS) secondary antibody is added for 90 minutes prior to PBS washes. Cells are counted following incubation in a 7.5 uM propidium iodide, 100 µg/ml RNaseA, PBS solution for 60 minutes in the dark. Plates are read on an Acumen X3 instrument (TPP Labtech).
as §1, §2

[5] = JAK1 kinase assay, 0.3 uM concentration

Recombinant human JAK1 catalytic domain, sequence (P23458 875-1153): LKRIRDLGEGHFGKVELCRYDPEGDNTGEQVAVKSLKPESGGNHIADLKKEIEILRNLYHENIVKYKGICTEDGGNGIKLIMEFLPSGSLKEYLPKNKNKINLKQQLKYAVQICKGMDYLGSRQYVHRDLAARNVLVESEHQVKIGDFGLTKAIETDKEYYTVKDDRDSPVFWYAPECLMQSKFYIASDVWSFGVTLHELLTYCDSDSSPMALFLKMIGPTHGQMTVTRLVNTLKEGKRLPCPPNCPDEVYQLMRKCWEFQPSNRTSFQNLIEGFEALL

Row | Compound | inhibition at 0.3 µM [1, 5] [%] | also measured
1 | CN(c1ccc(C#N)c(F)c1)[C@@H]1CCN(c2ncnc3[nH]ccc23)C1 [Compound 105] | 50 to 100 | pIC50 ([2]; Homo sapiens): 8.05; pIC50 ([3]; Homo sapiens): 5.77
2 | CN(c1ccc(S(N)(=O)=O)cn1)[C@@H]1CCN(c2ncnc3[nH]ccc23)C1 [Compound 234] | 50 to 100 | pIC50 [4]: 6.41; pIC50 ([2]; Homo sapiens): 6.47; pIC50 ([3]; Homo sapiens): 6.07
3 | CN(c1ccc(C(=O)Nc2nccs2)cn1)[C@@H]1CCN(c2ncnc3[nH]ccc23)C1 [Compound 199] |  | pIC50 [2]: 7.30; pIC50 [3]: 5.12
4 | CN(c1ccc(C(=O)N[C@@H]2c3ccccc3C[C@H]2O)cc1F)[C@@H]1CCN(c2ncnc3[nH]ccc23)C1 [Compound 206] | 50 to 100 | pIC50 [4]: 6.74; pIC50 ([2]; Homo sapiens): 7.62; pIC50 ([3]; Homo sapiens): 6.16
5 | CN(c1ncc(C#N)cn1)[C@@H]1CCN(c2ncnc3[nH]ccc23)C1 [Compound 142, (R)-2-((1-(7H-pyrrolo[2,3-d]pyrimidin-4-yl)pyrrolidin-3-yl)(methyl)amino)pyrimidine-5-carbonitrile] |  | inhibition at 0.3 µM [1]: 20 to 50%; pIC50 [4]: 6.47; pIC50 ([2]; Homo sapiens): 7.19; pIC50 ([3]; Homo sapiens): 5.51
6 | C[C@H](NC(=O)c1ccc(N(C)[C@@H]2CCN(c3ncnc4[nH]ccc34)C2)c(F)c1)c1ccccc1 [Compound 182] | 50 to 100 | 
7 | CN(C(=O)CS(C)(=O)=O)[C@@H]1CCN(c2ncnc3[nH]ccc23)C1 [Compound 27] | 50 to 100 | 
8 | CN(C(=O)CO)[C@@H]1CCN(c2ncnc3[nH]ccc23)C1 [Compound 24] | 50 to 100 | 
9 | CN(C(=O)Nc1ccc(C#N)c(F)c1)[C@@H]1CCN(c2ncnc3[nH]ccc23)C1 [Compound 31] | 50 to 100 | 
10 | C[C@@H](NS(=O)(=O)c1ccc(N(C)[C@@H]2CCN(c3ncnc4[nH]ccc34)C2)nc1)c1ccc(F)cc1 [Compound 255] | 50 to 100 | 
11 | CN(c1ccc(C#N)nn1)[C@@H]1CCN(c2ncnc3[nH]ccc23)C1 [Compound 60] | 50 to 100 | 
12 | CN(c1ccc(C(=O)NC[C@H](O)c2ccccc2)cc1Cl)[C@@H]1CCN(c2ncnc3[nH]ccc23)C1 [Compound 189] | 20 to 50 | 
13 | CN(c1ccc(C(=O)Nc2cccc(Cl)c2)cc1F)[C@@H]1CCN(c2ncnc3[nH]ccc23)C1 [Compound 185] | 50 to 100 | 
14 | CN(c1ncc(C#N)cc1Br)[C@@H]1CCN(c2ncnc3[nH]ccc23)C1 [Compound 99] | 50 to 100 | 
15 | N#Cc1cnc2c(c1)[nH]c(=O)n2[C@@H]1CCN(c2ncnc3[nH]ccc23)C1 [Compound 165, (R)-3-(1-(7H-pyrrolo[2,3-d]pyrimidin-4-yl)pyrrolidin-3-yl)-2-oxo-2,3-dihydro-1H-imidazo[4,5-b]pyridine-6-carbonitrile] | 20 to 50 | 
16 | C#Cc1ccc(N(C)[C@@H]2CCN(c3ncnc4[nH]ccc34)C2)nc1 [Compound 162, (R)—N-(1-(7H-pyrrolo[2,3-d]pyrimidin-4-yl)pyrrolidin-3-yl)-5-ethynyl-N-methylpyridin-2-amine] |  | inhibition at 0.3 µM [1]: 50 to 100%
17 | CN(C(=O)Nc1ccc(C#N)cc1)[C@@H]1CCN(c2ncnc3[nH]ccc23)C1 [Compound 17] | 50 to 100 | 
18 | CN(C(=O)N1CCC[C@@H]1C#N)[C@@H]1CCN(c2ncnc3[nH]ccc23)C1 [Compound 38] | 50 to 100 | 

Row | Compound | inhibition at 0.3 µM [1, 5] [%] | also measured
19 | CN(C(=O)C1(C#N)CC1)[C@@H]1CCN(c2ncnc3[nH]ccc23)C1 [Compound 6] | 50 to 100 | 
20 | COCC(=O)Nc1ccc(N(C)[C@@H]2CCN(c3ncnc4[nH]ccc34)C2)nc1 [Compound 228] | 20 to 50 | 
21 | CN(c1ncc(C#N)cc1F)[C@@H]1CCN(c2ncnc3[nH]ccc23)C1 [Compound 158] | 50 to 100 | 
22 | CN(c1cc(Cl)c(C#N)cc1F)[C@@H]1CCN(c2ncnc3[nH]ccc23)C1 [Compound 110] |  | inhibition at 0.3 µM [1]: 20 to 50%
23 | CN(c1ccc(NS(=O)(=O)Cc2cccc(F)c2)cn1)[C@@H]1CCN(c2ncnc3[nH]ccc23)C1 [Compound 220] | 50 to 100 | 
24 | CN(C1CCCC1)[C@@H]1CCN(c2ncnc3[nH]ccc23)C1 [Compound 53] | 50 to 100 | 
25 | CN(c1ccc(-c2ccc(C#N)cc2)cn1)[C@@H]1CCN(c2ncnc3[nH]ccc23)C1 [Compound 146] | 20 to 50 | 
26 | COCC1CCCN1S(=O)(=O)c1ccc(N(C)[C@@H]2CCN(c3ncnc4[nH]ccc34)C2)nc1 (stereo partly drawn) [Compound 249] | 50 to 100 | 
27 | CN(c1cccc(C#N)c1)[C@@H]1CCN(c2ncnc3[nH]ccc23)C1 [Compound 119, (R)-3-((1-(7H-pyrrolo[2,3-d]pyrimidin-4-yl)pyrrolidin-3-yl)(methyl)amino)benzonitrile] | 50 to 100 | 
28 | CN(C(=O)c1cccnc1)[C@@H]1CCN(c2ncnc3[nH]ccc23)C1 [Compound 5] | 20 to 50 | 
29 | COc1cccc(NC(=O)c2ccc(N(C)[C@@H]3CCN(c4ncnc5[nH]ccc45)C3)nc2)c1 [Compound 196] | 20 to 50 | 
30 | CN(c1ccc(C(=O)N[C@@H](CO)c2ccccc2)cc1Cl)[C@@H]1CCN(c2ncnc3[nH]ccc23)C1 [Compound 205] | 50 to 100 | 
31 | CN(c1ccc(C#N)cc1Br)[C@@H]1CCN(c2ncnc3[nH]ccc23)C1 [Compound 115] | 50 to 100 | 
32 | CCN(c1ccc(C#N)cn1)[C@@H]1CCN(c2ncnc3[nH]ccc23)C1 [Compound 126, (R)-6-((1-(7H-pyrrolo[2,3-d]pyrimidin-4-yl)pyrrolidin-3-yl)(ethyl)amino)-nicotinonitrile] | 50 to 100 | 
33 | Cc1cc(N(C)[C@@H]2CCN(c3ncnc4[nH]ccc34)C2)ncc1C#N [Compound 157] | 50 to 100 | 
34 | CNS(=O)(=O)N(C)[C@@H]1CCN(c2ncnc3[nH]ccc23)C1 [Compound 47] | 50 to 100 | pIC50 [4]: 5.94; pIC50 ([2]; Homo sapiens): 6.08; pIC50 ([3]; Homo sapiens): 5.83
35 | CC(C)S(=O)(=O)Nc1ccc(N(C)[C@@H]2CCN(c3ncnc4[nH]ccc34)C2)nc1 [Compound 218] | 50 to 100 | 
36 | C#CCN(C)[C@@H]1CCN(c2ncnc3[nH]ccc23)C1 [Compound 65] | 20 to 50 | 
